# Source: PubChem BioAssay (NCI)
#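 Where inhibition never reached the appropriate level, the endpoint shown equals the highest concentration tested. Otherwise, values were interpolated linearly from a five-concentration, 48-hour dose response in 96-well plates. TGI: concentration producing complete growth inhibition.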
# Experiments:
# Assay in all cases: DTP human tumour cell line panel, 48 h
# SK-MEL-2 melanoma = tested on: SK-MEL-2 melanoma
# MOLT-4 leukemia = tested on: MOLT-4 leukemia
# LXFL 529 NSCLC = tested on: LXFL 529 NSCLC
# SF-539 CNS = tested on: SF-539 CNS
# DMS 273 small cell lung = tested on: DMS 273 small cell lung
# U251 CNS = tested on: U251 CNS
# 786-0 renal = tested on: 786-0 renal
# HOP-92 NSCLC = tested on: HOP-92 NSCLC
# ACHN renal = tested on: ACHN renal
# OVCAR-3 ovarian = tested on: OVCAR-3 ovarian
# UACC-257 melanoma = tested on: UACC-257 melanoma
# SF-268 CNS = tested on: SF-268 CNS
# OVCAR-8 ovarian = tested on: OVCAR-8 ovarian
# CCRF-CEM leukemia = tested on: CCRF-CEM leukemia
# OVCAR-4 ovarian = tested on: OVCAR-4 ovarian
# NCI-H226 lung = tested on: NCI-H226 lung
# LOX IMVI melanoma = tested on: LOX IMVI melanoma
# XF 498 CNS = tested on: XF 498 CNS
# SN12C renal = tested on: SN12C renal
# M19-MEL melanoma = tested on: M19-MEL melanoma
# SNB-78 CNS = tested on: SNB-78 CNS
# SR leukemia = tested on: SR leukemia
# TK-10 renal = tested on: TK-10 renal
# K-562 leukemia = tested on: K-562 leukemia
# HCT-116 colon = tested on: HCT-116 colon
# DLD-1 colon = tested on: DLD-1 colon
# DMS 114 small cell lung = tested on: DMS 114 small cell lung
# EKVX NSCLC = tested on: EKVX NSCLC
# A549 NSCLC = tested on: A549 NSCLC
# M14 melanoma = tested on: M14 melanoma
# SK-OV-3 ovarian = tested on: SK-OV-3 ovarian
# SNB-19 CNS = tested on: SNB-19 CNS
# SK-MEL-28 melanoma = tested on: SK-MEL-28 melanoma
# SF-295 CNS = tested on: SF-295 CNS
# HOP-18 NSCLC = tested on: HOP-18 NSCLC
# RXF 393 renal = tested on: RXF 393 renal
# HT29 colon = tested on: HT29 colon
# NCI-H23 lung = tested on: NCI-H23 lung
# MALME-3M melanoma = tested on: MALME-3M melanoma
# UACC-62 melanoma = tested on: UACC-62 melanoma
# HCT-15 colon = tested on: HCT-15 colon
# HL-60(TB) leukemia = tested on: HL-60(TB) leukemia
# SW-620 colon = tested on: SW-620 colon
# SK-MEL-5 melanoma = tested on: SK-MEL-5 melanoma
# UO-31 renal = tested on: UO-31 renal
# HOP-62 NSCLC = tested on: HOP-62 NSCLC
# CAKI-1 renal = tested on: CAKI-1 renal
# NCI-H460 lung = tested on: NCI-H460 lung
# IGROV1 ovarian = tested on: IGROV1 ovarian
# NCI-H522 lung = tested on: NCI-H522 lung
# RPMI-8226 leukemia = tested on: RPMI-8226 leukemia
# SNB-75 CNS = tested on: SNB-75 CNS
# KM12 colon = tested on: KM12 colon
# OVCAR-5 ovarian = tested on: OVCAR-5 ovarian
# COLO 205 colon = tested on: COLO 205 colon
# KM20L2 colon = tested on: KM20L2 colon
# HCC-2998 colon = tested on: HCC-2998 colon
# A498 renal = tested on: A498 renal
smiles,measurement,setting,value
CN(C(=O)C12C3C4C5C3C1(C(=O)C13C6C7C8C6C1C8C73)C5C42)C(C)(C)C (centres undefined),TGI,SK-MEL-2 melanoma,> 50 µM
same,TGI,MOLT-4 leukemia,> 50 µM
same,TGI,LXFL 529 NSCLC,> 50 µM
same,TGI,SF-539 CNS,> 50 µM
same,TGI,DMS 273 small cell lung,> 30 µM
same,TGI,U251 CNS,> 50 µM
same,TGI,786-0 renal,> 50 µM
same,TGI,HOP-92 NSCLC,> 50 µM
same,TGI,ACHN renal,> 50 µM
same,TGI,OVCAR-3 ovarian,> 50 µM
same,TGI,UACC-257 melanoma,> 50 µM
same,TGI,SF-268 CNS,> 50 µM
same,TGI,OVCAR-8 ovarian,> 50 µM
same,TGI,CCRF-CEM leukemia,> 37.9 µM
same,TGI,OVCAR-4 ovarian,> 50 µM
same,TGI,NCI-H226 lung,> 50 µM
same,TGI,LOX IMVI melanoma,> 29.7 µM
same,TGI,XF 498 CNS,> 50 µM
same,TGI,SN12C renal,> 50 µM
same,TGI,M19-MEL melanoma,> 50 µM
same,TGI,SNB-78 CNS,> 50 µM
same,TGI,SR leukemia,> 50 µM
same,TGI,TK-10 renal,> 50 µM
same,TGI,K-562 leukemia,> 47.3 µM
same,TGI,HCT-116 colon,18.5 µM
same,TGI,DLD-1 colon,> 34.7 µM
same,TGI,DMS 114 small cell lung,> 37.6 µM
same,TGI,EKVX NSCLC,> 50 µM
same,TGI,A549 NSCLC,> 50 µM
same,TGI,M14 melanoma,> 50 µM
same,TGI,SK-OV-3 ovarian,> 50 µM
same,TGI,SNB-19 CNS,> 50 µM
same,TGI,SK-MEL-28 melanoma,> 50 µM
same,TGI,SF-295 CNS,> 50 µM
same,TGI,HOP-18 NSCLC,> 50 µM
same,TGI,RXF 393 renal,> 50 µM
same,TGI,HT29 colon,> 50 µM
same,TGI,NCI-H23 lung,> 50 µM
same,TGI,MALME-3M melanoma,> 50 µM
same,TGI,UACC-62 melanoma,> 50 µM
same,TGI,HCT-15 colon,> 32.2 µM
same,TGI,HL-60(TB) leukemia,> 26.9 µM
same,TGI,SW-620 colon,> 34 µM
same,TGI,SK-MEL-5 melanoma,> 50 µM
same,TGI,UO-31 renal,> 50 µM
same,TGI,HOP-62 NSCLC,> 50 µM
same,TGI,CAKI-1 renal,> 50 µM
same,TGI,NCI-H460 lung,> 50 µM
same,TGI,IGROV1 ovarian,> 50 µM
same,TGI,NCI-H522 lung,> 50 µM
same,TGI,RPMI-8226 leukemia,> 42.9 µM
same,TGI,SNB-75 CNS,> 50 µM
same,TGI,KM12 colon,> 50 µM
same,TGI,OVCAR-5 ovarian,> 50 µM
same,TGI,COLO 205 colon,> 50 µM
same,TGI,KM20L2 colon,> 50 µM
same,TGI,HCC-2998 colon,> 50 µM
same,TGI,A498 renal,> 50 µM
COc1ccc(C(c2c(O)c3ccccc3n(-c3ccccc3)c2=O)c2c(O)c3ccccc3n(-c3ccccc3)c2=O)cc1,TGI,SK-MEL-2 melanoma,> 100 µM
same,TGI,MOLT-4 leukemia,> 100 µM
same,TGI,LXFL 529 NSCLC,> 100 µM
same,TGI,SF-539 CNS,> 100 µM
same,TGI,DMS 273 small cell lung,> 100 µM
same,TGI,U251 CNS,> 100 µM
same,TGI,786-0 renal,> 100 µM
same,TGI,HOP-92 NSCLC,> 100 µM
same,TGI,ACHN renal,> 100 µM
same,TGI,OVCAR-3 ovarian,> 100 µM
same,TGI,SF-268 CNS,> 100 µM
same,TGI,CCRF-CEM leukemia,> 100 µM
same,TGI,OVCAR-4 ovarian,> 100 µM
same,TGI,NCI-H226 lung,> 100 µM
same,TGI,LOX IMVI melanoma,> 100 µM
same,TGI,XF 498 CNS,> 100 µM
same,TGI,SN12C renal,> 100 µM
same,TGI,M19-MEL melanoma,> 100 µM
same,TGI,SNB-78 CNS,> 100 µM
same,TGI,SR leukemia,> 100 µM
same,TGI,TK-10 renal,> 100 µM
same,TGI,K-562 leukemia,> 100 µM
same,TGI,HCT-116 colon,> 100 µM
same,TGI,DLD-1 colon,> 100 µM
same,TGI,DMS 114 small cell lung,> 100 µM
same,TGI,EKVX NSCLC,> 100 µM
same,TGI,A549 NSCLC,> 100 µM
same,TGI,SNB-19 CNS,> 100 µM
same,TGI,SK-MEL-28 melanoma,> 100 µM
same,TGI,HOP-18 NSCLC,> 100 µM
same,TGI,RXF 393 renal,> 100 µM
same,TGI,NCI-H23 lung,> 100 µM
same,TGI,MALME-3M melanoma,> 100 µM
same,TGI,HCT-15 colon,> 100 µM
same,TGI,SW-620 colon,> 100 µM
same,TGI,SK-MEL-5 melanoma,> 100 µM
same,TGI,UO-31 renal,> 100 µM
same,TGI,HOP-62 NSCLC,> 100 µM
same,TGI,CAKI-1 renal,> 100 µM
same,TGI,NCI-H522 lung,> 100 µM
same,TGI,RPMI-8226 leukemia,> 100 µM
same,TGI,KM12 colon,> 100 µM
same,TGI,OVCAR-5 ovarian,> 100 µM
same,TGI,COLO 205 colon,> 100 µM
same,TGI,KM20L2 colon,> 100 µM
same,TGI,HCC-2998 colon,> 100 µM
